Here are results for 1 compound from patent US20170275275A1, “BENZENESULFONAMIDES USEFUL AS SODIUM CHANNEL INHIBITORS” (PFIZER INC., priority 2014, published 2017).

The target in data set [1] is T1, Nav1.7 (or SCN9A) channel (Homo sapiens, UniProt Q15858).
T1 construct: expressed in transfected cells
Description: Nav1.7 (hSCN9A) channel block, PatchXpress (PX) whole-cell electrophysiology in stably transfected HEK cells. The settings on record: estimated IC50 from single point electrophysiology data; PatchXpress platform; HEK cells expressing hSCN9A; clamped at V1/2 of inactivation; read-out: Nav1.7 EIC50. In kind it is cell-based. The procedure:
The ability of the compounds of formula (I) to block the Nav1.7 (or SCN9A) channel was measured using the assay described below.
Human Embryonic Kidney (HEK) cells were transfected with an hSCN9A construct using lipofectamine reagent (Invitrogen), using standard techniques. Cells stably expressing the hSCN9A constructs were identified by their resistance to G-418 (400 μg/ml). Clones were screened for expression using the whole-cell voltage-clamp technique.
HEK cells stably transfected with hSCN9A were maintained in DMEM medium supplemented with 10% heat-inactivated fetal bovine serum and 400 μg/ml G-418 in an incubator at 37° C. with a humidified atmosphere of 10% CO2. For HTS, cells were harvested from flasks by trypsinization and replated in an appropriate multi-well plate (typically 96 or 384 wells/plate) such that confluence would be achieved within 24 hours of plating. Cells were typically used for electrophysiological experiments within 24 to 72 hours after plating.
For conventional whole-cell voltage clamp experiments cells were removed from the culture flask by brief trypsinization and re-plated at low density onto glass cover slips. Cover slips containing HEK cells expressing hSCN9A were placed in a bath on the stage of an inverted microscope and perfused (approximately 1 ml/minutes) with extracellular solution of the following composition: 138 mM NaCl, 2 mM CaCl2, 5.4 mM KCl, 1 mM MgCl2, 10 mM glucose, and 10 mM HEPES, pH 7.4, with NaOH. […] The osmolarity of the extracellular and intracellular solutions was 300 mOsm/kg and 295 mOsm/kg, respectively. All recordings were made at room temperature (22-24° C.) using AXOPATCH 200B amplifiers and PCLAMP software (Axon Instruments, Burlingame, Calif.). hSCN9A currents in HEK cells were measured using the whole-cell configuration of the patch-clamp technique (Hamill et al., 1981). Uncompensated series resistance was typically 2 to 5 mega ohms and >85% series resistance compensation was routinely achieved. […] Current records were acquired at 20 to 50 KHz and filtered at 5 to 10 KHz.
HEK cells stably transfected with hSCN9A were viewed under Hoffman contrast optics and placed in front of an array of flow pipes emitting either control or compound-containing extracellular solutions.
The voltage-dependence of inactivation was determined by applying a series of depolarizing prepulses (8 sec long in 10 mV increments) from a negative holding potential. The voltage was then immediately stepped to 0 mV to assess the magnitude of the sodium current. Currents elicited at 0 mV were plotted as a function of prepulse potential to allow estimation of the voltage at which 50% of the channels were inactivated (midpoint of inactivation or V1/2). Compounds were tested for their ability to inhibit hSCN9A sodium channels by activating the channel with a 20 msec voltage step […] to 0 mV following an 8 second conditioning prepulse to the empirically determined V1/2. Compound effect (% inhibition) was determined by difference in current amplitude before and after application of test compounds. For ease of comparison, “estimated IC-50” (EIC50) values were calculated from single point electrophysiology data by the following equation, (tested concentration, nM)×(100-% inhibition/% inhibition). Inhibition values <20% and >80% were excluded from the calculation.
Electrophysiological assays were conducted with PatchXpress 7000 hardware and associated software (Molecular Devices Corp). All assay buffers and solutions were identical to those used in conventional whole-cell voltage clamp experiments described above. hSCN9A cells were grown as above to 50%-80% confluency and harvested by trypsinization. Trypsinized cells were washed and resuspended in extracellular buffer at a concentration of 1×10^6 cells/ml. The onboard liquid handling facility of the PatchXpress was used for dispensing cells and application of test compounds.

Data set [2] is described as follows: Aqueous solubility, shake-flask method. In kind it is physicochemical. The settings on record: aqueous buffer, thermodynamic from solid, pH 7.0, shaken 18 hours at room temperature. As to the method:
Aqueous solubility data were generated via a “shake-flask” method where an excess of compound was added to a buffer (typically phosphate buffered saline at pH 7.4) and shaken for a period of 18 hours at room temperature. After this time any excess solid was removed by double centrifugation to obtain a saturated aqueous solution. The amount of compound solubilised was quantified by HPLC-UV or LC-MS against a standard calibration curve.
The solubility data generated are set out below. Where a greater than figure is quoted, all available compound was solubilised and saturation was not achieved in the conditions employed.

Structures can show the parent of a compound that is named as a salt. Bounds are passed on as bounds.

T1 sequence (Q15858 whole entry): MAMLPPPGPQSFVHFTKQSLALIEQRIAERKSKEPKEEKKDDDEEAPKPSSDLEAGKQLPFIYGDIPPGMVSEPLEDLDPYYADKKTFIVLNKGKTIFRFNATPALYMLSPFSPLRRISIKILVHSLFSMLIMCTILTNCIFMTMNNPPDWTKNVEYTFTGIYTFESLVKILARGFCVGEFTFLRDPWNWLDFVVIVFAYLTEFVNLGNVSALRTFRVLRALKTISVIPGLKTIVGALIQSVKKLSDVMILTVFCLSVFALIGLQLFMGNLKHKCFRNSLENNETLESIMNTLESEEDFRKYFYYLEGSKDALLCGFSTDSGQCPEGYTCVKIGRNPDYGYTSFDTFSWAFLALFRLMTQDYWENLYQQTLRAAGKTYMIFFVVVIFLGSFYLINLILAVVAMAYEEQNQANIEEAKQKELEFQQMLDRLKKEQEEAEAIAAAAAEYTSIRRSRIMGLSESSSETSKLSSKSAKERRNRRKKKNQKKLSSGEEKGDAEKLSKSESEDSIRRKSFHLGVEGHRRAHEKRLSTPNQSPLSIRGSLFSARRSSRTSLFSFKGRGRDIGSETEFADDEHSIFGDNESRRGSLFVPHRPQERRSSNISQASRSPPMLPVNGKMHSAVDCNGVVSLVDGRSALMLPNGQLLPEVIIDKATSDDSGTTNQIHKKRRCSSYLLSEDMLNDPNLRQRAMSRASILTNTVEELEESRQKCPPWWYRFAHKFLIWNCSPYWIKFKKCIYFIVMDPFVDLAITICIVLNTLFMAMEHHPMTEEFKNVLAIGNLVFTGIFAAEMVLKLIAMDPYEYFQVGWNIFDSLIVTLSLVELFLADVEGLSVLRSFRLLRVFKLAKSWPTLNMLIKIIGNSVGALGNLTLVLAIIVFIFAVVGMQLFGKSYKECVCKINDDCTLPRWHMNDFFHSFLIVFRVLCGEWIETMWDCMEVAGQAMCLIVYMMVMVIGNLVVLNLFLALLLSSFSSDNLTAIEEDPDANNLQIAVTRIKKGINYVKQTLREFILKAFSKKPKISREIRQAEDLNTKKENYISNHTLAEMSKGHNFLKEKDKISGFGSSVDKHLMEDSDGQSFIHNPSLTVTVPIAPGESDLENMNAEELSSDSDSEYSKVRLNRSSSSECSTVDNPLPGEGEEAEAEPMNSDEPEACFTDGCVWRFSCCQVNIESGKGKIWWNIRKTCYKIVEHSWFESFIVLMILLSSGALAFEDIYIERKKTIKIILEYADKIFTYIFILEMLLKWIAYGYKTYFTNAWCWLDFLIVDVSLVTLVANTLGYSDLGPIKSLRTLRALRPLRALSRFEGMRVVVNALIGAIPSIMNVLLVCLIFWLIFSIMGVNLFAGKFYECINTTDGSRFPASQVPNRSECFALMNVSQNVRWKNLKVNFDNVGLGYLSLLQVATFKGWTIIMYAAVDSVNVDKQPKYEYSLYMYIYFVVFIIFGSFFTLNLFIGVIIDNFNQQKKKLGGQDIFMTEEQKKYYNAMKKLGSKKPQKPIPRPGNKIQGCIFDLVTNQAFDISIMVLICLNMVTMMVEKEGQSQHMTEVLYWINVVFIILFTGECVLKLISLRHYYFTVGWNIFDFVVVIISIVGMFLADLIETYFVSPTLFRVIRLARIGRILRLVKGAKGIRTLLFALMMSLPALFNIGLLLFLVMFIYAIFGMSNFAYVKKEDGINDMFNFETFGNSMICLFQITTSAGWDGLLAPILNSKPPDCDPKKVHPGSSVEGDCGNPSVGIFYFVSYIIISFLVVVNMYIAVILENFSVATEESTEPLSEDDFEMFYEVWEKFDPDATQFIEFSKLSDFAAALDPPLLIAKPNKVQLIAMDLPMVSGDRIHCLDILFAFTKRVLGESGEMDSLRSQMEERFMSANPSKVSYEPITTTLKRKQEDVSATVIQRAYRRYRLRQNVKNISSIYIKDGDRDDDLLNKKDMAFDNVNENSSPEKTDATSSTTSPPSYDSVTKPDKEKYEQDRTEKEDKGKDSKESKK

`NCc1cc(-c2cc(-c3cccc(C(F)(F)F)c3)ccc2Oc2cc(F)c(S(=O)(=O)Nc3cscn3)cc2Cl)ccn1` [Example 29, 4-({3-[2-(aminomethyl)pyridin-4-yl]-3′-(trifluoromethyl)biphenyl-4-yl}oxy)-5-chloro-2-fluoro-N-(1,3-thiazol-4-yl)benzenesulfonamide dihydrochloride salt]: in data set [1], the IC50 was 2.9 nM. In addition, the solubility at 18 h in data set [2] is < 0.5 µg/mL.
